# Laboratory results as given in patent US20210363495A1, “CULTURE MEDIA FOR PLURIPOTENT STEM CELLS” (Yeda Research and Development Co. Ltd., priority 2019, published 2021).
# Experiments:
# [1] = system: Tet-OFF-METTL3 hESCs (WIBR3, clone W3G4); experiment: Pluripotency (OCT4+) maintenance of Tet-OFF-METTL3 hESCs in the presence of DOX; assay type: cell-based, human; conditions: for expanding METTL3 depleted cells when substituted for TNKi: optimized ENHSM conditions without TNKi, DOX up to 4 passages; for expansion of Tet-OFF-METTL3 on DOX: individual small molecule supplemented to NHSM, Geltrex coated plates, no MEFs
# Excerpt: FIGS. 1A-I Defining enhanced human naive conditions compatible with expanding METTL3 depleted PSCs. A. Strategy for generating human ESCs with TET-OFF regulated expression of METTL3 m^6A methyltransferase enzyme. B. Western blot analysis for correctly engineered human ESCs with TET-OFF METTL3 regulation, before and after DOX treatment. C. Representative images for human METTL3 TET-OFF engineered cells in different conditions with or without DOX addition. […] D. Scheme depicting strategy for conducting a screen for identifying a small molecule or cytokine additive to previously described human naïve NHSM conditions that allow maintain pluripotency in TET-OFF METTL3 human stem cells after adding DOX. E. W3G4 cells were maintained in the presence of DOX for up to 4 passages in different conditions and stained for OCT4 to quantify percentage of cells that retained their pluripotency. […] F. OCT4+ pluripotency maintenance in NHSM conditions supplemented with various TNK inhibitors and DOX to repress METTL3 expression. G. Quantification of ΔPE-OCT4-GFP knock in naïve pluripotency reporter, in variety of primed (red) and naïve conditions (blue). Mean fluorescence intensity values (MFI) are indicated. H. Quantification of ΔPE-OCT4-GFP knock in naïve pluripotency reporter in variety of conditions with various concentrations of ACTIVIN A recombinant cytokine. […] I. Representative phase contrast images in human ESCs expanded in NHSM+TNKi conditions showing their maintenance of pluripotent domed-like morphology even in the presence of FGFRi.
# In order to identify culture conditions which capture human naïve PSC, the present inventors looked for agents which are capable of maintaining stem cells in a pluripotent state in the absence of defined epigenetic repressors. Human knock-in WIBR3 hESC lines with conditional inducible ablation expression of METTL3 were engineered (FIG. 1A). This was carried out by introducing an exogenous METTL3 transgene under the regulation of Tet-OFF promoter (Liao et al., 2015), followed by CRISPR/Cas9 mediated ablation of both endogenous human METTL3 alleles. Two resultant clones were validated for METTL3 expression only from the exogenous allele, which can be shut off by addition of DOX to the media (called Tet-OFF-METTL3 lines) (FIG. 1B).
# The latter further support rewiring toward naïve pluripotency in NHSM conditions. […] Candidate molecules were tested for the ability to enrich NHSM conditions that allow Tet-OFF-METTL3 to be maintained on Geltrex coated plates in the presence of DOX.
# NHSM conditions were supplemented with individual small molecules (FIG. 1D). […] IWR1 is a WNT inhibitor (WNTi) small molecule that stabilizes AXIN protein in the cytoplasm by inhibiting Tankyrase enzyme (abbreviated herein as TNK inhibitor—TNKi).
# [2] = system: human ESCs; experiment: Domed morphology under TGF/ACTIVIN signalling blockade; assay type: cell-based
# Excerpt: FIGS. 1A-I Defining enhanced human naive conditions compatible with expanding METTL3 depleted PSCs. A. Strategy for generating human ESCs with TET-OFF regulated expression of METTL3 m^6A methyltransferase enzyme. B. Western blot analysis for correctly engineered human ESCs with TET-OFF METTL3 regulation, before and after DOX treatment. C. Representative images for human METTL3 TET-OFF engineered cells in different conditions with or without DOX addition. […] E. W3G4 cells were maintained in the presence of DOX for up to 4 passages in different conditions and stained for OCT4 to quantify percentage of cells that retained their pluripotency. […] G. Quantification of ΔPE-OCT4-GFP knock in naïve pluripotency reporter, in variety of primed (red) and naïve conditions (blue). Mean fluorescence intensity values (MFI) are indicated. H. Quantification of ΔPE-OCT4-GFP knock in naïve pluripotency reporter in variety of conditions with various concentrations of ACTIVIN A recombinant cytokine. […]
# FIGS. 3A-I. Defining enhanced human naive conditions compatible with blocking TGF/ACTIVIN signaling. […] F. Mass spectrometry-based quantification of m^6A on isolated mRNA from the indicated cell lines and conditions. […]
# [3] = system: WIBR2 hESC carrying MECP2 fluorescent reporter alleles; experiment: X chromosome reactivation, MECP2 two-colour reporter FACS; assay type: cell-based, human; conditions: added to ENHSM without ERKi (0ENHSM) or with 0.33 microM ERKi (tENHSM)
# Excerpt: FIGS. 17A-D. Chromosome X reactivation status and DNA methylation profile in ENHSM based conditions. A. Schematic and FACS results following using WIBR2 (person 46XX) 29-9 hESC line that carries GFP and mCherry on each of the X chromosomes in the MECP2 locus. Parental 29-9 clone has the X chromosome carrying mCherry allele in the active state, and thus is positive only for mCherry and negative for GFP in the primed state. Upon transfer to ENHSM conditions, all cells turn on both X chromosomes and thus become double positive for both fluorescent markers (GFP and mCherry). After transfer into primed conditions (i.e. repriming), cells start to inactivate the X chromosome again. B. RNA-FISH analysis for ATRX transcription in primed and ENHSM WIBR3 cells. Note ATRX is active on both X chromosomes only in ENHSM conditions. C. Western blot analysis for DNA methylation regulators, DNMT1 and UHRF enzymes. DNMT1 protein levels are maintained in all conditions. […] D. Global methylation histogram as calculated from primed samples, and naïve samples that were maintained in various conditions, including titrated ERKi supplementation, along with previously published Reset-naïve and primed samples (Takashima et al), and human ICM samples (Smith et al, Nature 2014, Guo et al, Nature 2014). […]
molecule,measurement,setting,value
COc1cccc(-c2cn(-c3ccc(CCN4CCC(O)CC4)cc3)c3ncnc(N)c23)c1 [CGP77675],maintenance of OCT4+ cells without ACTIVIN A,"[1]; TNKi supplemented optimized NHSM, no ACTIVIN A, on DOX",dramatically maintained the stability of dome like cells that were uniformly OCT4+
Cc1cccc(-c2nn(C(=S)Nc3ccccc3)cc2-c2ccnc3ccccc23)n1 [Condition A83-01],domed morphology after TGFRi,[2]; cells in ENHSM,maintained
same,domed morphology after TGFRi,[2]; cells in NHSM+TNKi,lose their pluripotent dome-like shaped morphology and differentiate
C[C@H](NC(=O)Cc1cc(F)cc(F)c1)C(=O)N[C@@H]1C(=O)N(C)c2ccccc2-c2ccccc21 [DBZ],maintenance of pre-X inactivation naïve state when ERKi is omitted or depleted,[3],allowed robust and feeder free maintenance of human naïve cells
O=C1Cc2c([nH]c3ccc(Br)cc23)-c2ccccc2N1 [Kenpaullone],expanding METTL3 depleted cells when substituted for TNKi,[1],none of them allowed expanding METTL3 depleted cells in vitro
CCCC(CCC)C(=O)O [VPA],expanding METTL3 depleted cells when substituted for TNKi,[1],none of them allowed expanding METTL3 depleted cells in vitro
Oc1nc(-c2ccc(C(F)(F)F)cc2)nc2c1CSCC2 [XAV939],expansion of Tet-OFF-METTL3 on DOX,[1],yielded a similar effect
O=C(Nc1cccc2cccnc12)c1ccc(N2C(=O)[C@@H]3[C@H](C2=O)[C@H]2C=C[C@@H]3C2)cc1 [exo-IWR1],expansion of Tet-OFF-METTL3 on DOX,[1],failed to do so
"ACTIVIN A: recombinant cytokine, activator of TGF/ACTIVIN pathway (protein, homo sapiens) MPLLWLRGFLLASCWIIVRSSPTPGSEGHSAAPDCPSCALAALPKDVPNSQPEMVEAVKKHILNMLHLKKRPDVTQPVPKAALLNAIRKLHVGKVGENGYVEIEDDIGRRAEMNELMEQTSEIITFAESGTARKTLHFEISKEGSDLSVVERAEVWLFLKVPKANRTRTKVTIRLFQQQKHPQGSLDTGEEAEEVGLKGERSELLLSEKVVDARKSTWHVFPVSSSIQRLLDQGKSSLDVRIACEQCQESGASLVLLGKKKKKEEEGEGKKKGGGEGGAGADEEKEQSHRPFLMLQARQSEDHPHRRRRRGLECDGKVNICCKKQFFVSFKDIGWNDWIIAPSGYHANYCEGECPSHIAGTSGSSLSFHSTVINHYRMRGHSPFANLKSCCVPTKLRPMSMLYYDDGQNIIKKDIQNMIVEECGCS",maintenance of pre-X inactivation naïve state when ERKi is omitted or depleted,[3],did not block loss X reactivation
